Square brackets hold non-standard residues; d marks the D form. Ends that are not written are not given here. Peptide text beside a SMILES is read from it. * marks the point of attachment. Acetyl(2-(4-imidazolyl)) = O=C(Cc1c[nH]cn1)*; Arg(Me) = CNC(=N)NCCC[C@H](N)C(=O)O; Boc = CC(C)(C)OC(=O)*; azaGly = NNC(=O)O
target: T1, hOT7T175 (Homo sapiens, UniProt Q969F8, L364H); assay: hOT7T175 receptor binding activity: binding inhibition of Cy-5-labeled metastin (40-54) on hOT7T175-expressed CHO cells; parameters: expressed in transfected cells; host or cells: CHO cells; settings: not given
Method: Assay for hOT7T175 Receptor Binding Activity
h0T7T175-Expressed CHO cells were cultured in MEM-cc medium (nucleic acid-free) containing 10% dialyzed serum. The medium was removed and the adherent cells were washed with PBS. Then, PBS containing 5 mM EDTA was added and the cells were scraped from a flask with a cell scraper. […] To each well of a 96-Well Black Clear Bottom Plate (Applied Biosystems, Inc.), 10 μL of assay buffer containing 1% dimethylsulfoxide was added to examine total binding, 10 μL of 10 μM non-labeled peptide (having the same amino acid sequence as that of the labeled one) solution diluted with assay buffer to examine non-specific binding, and 10 μL of a test compound diluted with assay buffer to examine the binding inhibition activity of the test compound, respectively. Furthermore, 90 μL each of the cell suspension was dispensed to each well. […] The specific binding is a value obtained by subtracting the non-specific binding from the total binding.

T1 sequence (Q969F8 whole entry L364H): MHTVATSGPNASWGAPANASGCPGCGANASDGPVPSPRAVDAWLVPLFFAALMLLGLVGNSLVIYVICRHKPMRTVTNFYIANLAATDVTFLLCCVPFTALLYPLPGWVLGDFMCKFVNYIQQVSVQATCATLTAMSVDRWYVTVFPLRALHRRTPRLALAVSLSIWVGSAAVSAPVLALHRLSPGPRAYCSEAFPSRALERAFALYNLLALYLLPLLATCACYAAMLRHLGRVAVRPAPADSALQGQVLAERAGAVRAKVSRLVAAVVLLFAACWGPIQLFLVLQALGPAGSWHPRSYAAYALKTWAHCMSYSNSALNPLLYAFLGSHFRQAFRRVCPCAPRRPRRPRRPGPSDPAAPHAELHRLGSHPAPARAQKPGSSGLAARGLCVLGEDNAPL

**Q.** `CC(C)C[C@H](NC(=O)CNC(=O)[C@H](Cc1ccccc1)NC(=O)[C@H](CO)NC(=O)[C@H](CC(N)=O)NC(=O)[C@H](Cc1c[nH]c2ccccc12)NC(=O)[C@@H](N)CC(N)=O)C(=O)N[C@@H](CCCNC(=N)N)C(=O)N[C@@H](Cc1ccccc1)C(N)=O` [Compound No. 4, des(1)-MS10, reference compound] (H-NWNSFGLRF-NH2; N-terminus assumed) was tested. Which IC50 did it give?
**A.** Its IC50 is 260 nM.

**Q.** How did the IC50 turn out when `CC(C)C[C@H](NC(=O)CNC(=O)[C@H](Cc1ccccc1)NC(=O)[C@H](CO)NC(=O)[C@H](CC(N)=O)NC(=O)[C@H](Cc1c[nH]c2ccccc12)NC(=O)[C@H](CC(N)=O)NC(=O)[C@@H](N)Cc1ccc(O)cc1)C(=O)N[C@@H](CCCCN)C(=O)N[C@@H](Cc1ccccc1)C(N)=O` [Compound No. 44] (H-YNWNSFGLKF-NH2) was run?
**A.** Its IC50 is 190 nM.

**Q.** For `CC(C)C[C@H](NC(=O)CNC(=O)[C@H](Cc1ccccc1)NC(=O)[C@H](CO)NC(=O)[C@H](CC(N)=O)NC(=O)[C@H](Cc1c[nH]c2ccccc12)NC(=O)[C@H](CC(=O)O)NC(=O)[C@@H](N)Cc1ccc(O)cc1)C(=O)N[C@@H](CCCNC(=N)N)C(=O)N[C@@H](Cc1ccccc1)C(N)=O` [Compound No. 57] (H-YDWNSFGLRF-NH2), which IC50 is on record?
**A.** The IC50 was 100 nM.

**Q.** For `CC(C)C[C@H](NC(=O)CNC(=O)[C@H](Cc1ccccc1)NC(=O)[C@H](CO)NC(=O)[C@H](CC(N)=O)NC(=O)[C@H](Cc1c[nH]c2ccccc12)NC(=O)[C@H](CC(C)C)NC(=O)[C@@H](N)Cc1ccc(O)cc1)C(=O)N[C@@H](CCCNC(=N)N)C(=O)N[C@@H](Cc1ccccc1)C(N)=O` [Compound No. 59] (H-YLWNSFGLRF-NH2), which IC50 is on record?
**A.** Its IC50 is 340 nM.

**Q.** Which IC50 does the source give for `CC(C)C[C@H](NC(=O)CNC(=O)[C@H](Cc1ccccc1)NC(=O)[C@H](CO)NC(=O)[C@H](CC(N)=O)NC(=O)[C@H](C)NC(=O)[C@H](CC(N)=O)NC(=O)[C@@H](N)Cc1ccc(O)cc1)C(=O)N[C@@H](CCCNC(=N)N)C(=O)N[C@@H](Cc1ccccc1)C(N)=O` [Compound No. 67] (H-YNANSFGLRF-NH2) here?
**A.** The IC50 was 27 nM.

**Q.** Which IC50 does the source give for `CC(C)C[C@H](NC(=O)CNC(=O)[C@H](Cc1ccccc1)NC(=O)[C@H](CO)NC(=O)[C@H](CC(N)=O)NC(=O)[C@H](CC(C)C)NC(=O)[C@H](CC(N)=O)NC(=O)[C@@H](N)Cc1ccc(O)cc1)C(=O)N[C@@H](CCCNC(=N)N)C(=O)N[C@@H](Cc1ccccc1)C(N)=O` [Compound No. 68] (H-YNLNSFGLRF-NH2) here?
**A.** The IC50 was 7.7 nM.

**Q.** Which IC50 does the source give for `CC(C)C[C@H](NC(=O)CNC(=O)[C@H](Cc1ccccc1)NC(=O)[C@H](CO)NC(=O)[C@H](CC(N)=O)NC(=O)[C@H](CO)NC(=O)[C@H](CC(N)=O)NC(=O)[C@@H](N)Cc1ccc(O)cc1)C(=O)N[C@@H](CCCNC(=N)N)C(=O)N[C@@H](Cc1ccccc1)C(N)=O` [Compound No. 69] (H-YNSNSFGLRF-NH2) here?
**A.** Its IC50 is 83 nM.

**Q.** For `CC(C)C[C@H](NC(=O)CNC(=O)[C@H](Cc1ccccc1)NC(=O)[C@H](CO)NC(=O)[C@H](CC(N)=O)NC(=O)[C@H](Cc1c[nH]c2ccccc12)NC(=O)[C@H](CC(N)=O)NC(=O)[C@H](C)N)C(=O)N[C@@H](CCCNC(=N)N)C(=O)N[C@@H](Cc1ccccc1)C(N)=O` [Compound No. 72] (H-ANWNSFGLRF-NH2), which IC50 is on record?
**A.** The IC50 was 540 nM.

**Q.** Which IC50 does the source give for `CC(C)C[C@H](NC(=O)CNC(=O)[C@H](Cc1ccccc1)NC(=O)[C@H](CO)NC(=O)[C@H](CC(N)=O)NC(=O)[C@H](Cc1c[nH]c2ccccc12)NC(=O)[C@H](CC(N)=O)NC(=O)[C@@H](N)Cc1ccc(O)cc1)C(=O)N[C@@H](CCCNC(=N)N(C)C)C(=O)N[C@@H](Cc1ccccc1)C(N)=O` [Compound No. 83] here?
**A.** The IC50 was 25 nM.

**Q.** For `CC(C)[C@H](NC(=O)CNC(=O)[C@H](Cc1ccccc1)NC(=O)[C@H](CO)NC(=O)[C@H](CC(N)=O)NC(=O)[C@H](Cc1c[nH]c2ccccc12)NC(=O)[C@H](CC(N)=O)NC(=O)[C@@H](N)Cc1ccc(O)cc1)C(=O)N[C@@H](CCCNC(=N)N)C(=O)N[C@@H](Cc1ccccc1)C(N)=O` [Compound No. 107] (H-YNWNSFGVRF-NH2), which IC50 is on record?
**A.** The IC50 was 120 nM.

target: T1, hOT7T175; assay: Intracellular Ca ion level-increasing activity using FLIPR in hOT7T175/CHO; type: cell-based; parameters: expressed in transfected cells; host or cells: CHO/dhfr- cells, obtained from ATCC; settings: relative, Metastin (1-54) = 1

**Q.** `CNC(=N)NCCC[C@H](NC(=O)[C@H](CC(C)C)NC(=O)NNC(=O)[C@H](Cc1ccccc1)NC(=O)[C@H](CO)NC(=O)[C@H](CC(N)=O)NC(=O)Cc1c[nH]cn1)C(=O)N[C@@H](Cc1ccccc1)C(N)=O` [Compound No. 323, 4-Imidazoleacetyl-Asn-Ser-Phe-AzaGly-Leu-Arg(Me)-Phe-NH2] ({Acetyl(2-(4-imidazolyl))}-NSF[azaGly]L[Arg(Me)]F-NH2) was tested. Which “Specific Activity (intracellular Ca ion level-increasing activity)” value did it give?
**A.** Its value is 1.

**Q.** With “Boc-Tyr-Asn-Trp-Phe-Gly-Leu-Arg-Phe-NH2 (Boc-YNWFGLRF-NH2; SMILES CC(C)C[C@H](NC(=O)CNC(=O)[C@H](Cc1ccccc1)NC(=O)[C@H](Cc1c[nH]c2ccccc12)NC(=O)[C@H](CC(N)=O)NC(=O)[C@H](Cc1ccc(O)cc1)NC(=O)OC(C)(C)C)C(=O)N[C@@H](CCCNC(=N)N)C(=O)N[C@@H](Cc1ccccc1)C(N)=O) [Compound No. 87]” as the molecule, how does the “Specific Activity (intracellular Ca ion level-increasing activity)” value read?
**A.** Its value is 1.

**Q.** With “D-Tyr-Asn-Trp-Asn-Ser-Phe-Ala-Leu-Arg(Me)-Phe-NH2 ([dY]NWNSFAL[Arg(Me)]F-NH2; N-terminus assumed; SMILES CNC(=N)NCCC[C@H](NC(=O)[C@H](CC(C)C)NC(=O)[C@H](C)NC(=O)[C@H](Cc1ccccc1)NC(=O)[C@H](CO)NC(=O)[C@H](CC(N)=O)NC(=O)[C@H](Cc1c[nH]c2ccccc12)NC(=O)[C@H](CC(N)=O)NC(=O)[C@H](N)Cc1ccc(O)cc1)C(=O)N[C@@H](Cc1ccccc1)C(N)=O) [Compound No. 173]” as the molecule, how does the “Specific Activity (intracellular Ca ion level-increasing activity)” value read?
**A.** The value was 1.

**Q.** For “D-Tyr-Asn-Trp-Gln-Ser-Phe-Gly-Leu-Arg(Me)-Phe-NH2 ([dY]NWQSFGL[Arg(Me)]F-NH2; N-terminus assumed; SMILES CNC(=N)NCCC[C@H](NC(=O)[C@H](CC(C)C)NC(=O)CNC(=O)[C@H](Cc1ccccc1)NC(=O)[C@H](CO)NC(=O)[C@H](CCC(N)=O)NC(=O)[C@H](Cc1c[nH]c2ccccc12)NC(=O)[C@H](CC(N)=O)NC(=O)[C@H](N)Cc1ccc(O)cc1)C(=O)N[C@@H](Cc1ccccc1)C(N)=O) [Compound No. 209]”, which “Specific Activity (intracellular Ca ion level-increasing activity)” value is on record?
**A.** The value was “½”.

**Q.** For “D-Tyr-Asn-Trp-Ser-Ser-Phe-Gly-Leu-Arg(Me)-Phe-NH2 ([dY]NWSSFGL[Arg(Me)]F-NH2; N-terminus assumed; SMILES CNC(=N)NCCC[C@H](NC(=O)[C@H](CC(C)C)NC(=O)CNC(=O)[C@H](Cc1ccccc1)NC(=O)[C@H](CO)NC(=O)[C@H](CO)NC(=O)[C@H](Cc1c[nH]c2ccccc12)NC(=O)[C@H](CC(N)=O)NC(=O)[C@H](N)Cc1ccc(O)cc1)C(=O)N[C@@H](Cc1ccccc1)C(N)=O) [Compound No. 207]”, which “Specific Activity (intracellular Ca ion level-increasing activity)” value is on record?
**A.** Its value is “½”.

**Q.** How did the “Specific Activity (intracellular Ca ion level-increasing activity)” value turn out when “D-Tyr-D-Pya(4)-Asn-Ser-Phe-AzaGly-Leu-Arg(Me)-Trp-NH2 [Compound No. 385]” was run?
**A.** The value was 10.

**Q.** Which “Specific Activity (intracellular Ca ion level-increasing activity)” value does the source give for “Dap-D-Tyr-Asn-Trp-Asn-Ser-Phe-Gly-Leu-Arg(Me)-Phe-NH2 [Compound No. 387]” here?
**A.** The value was 1.

**Q.** Which “Specific Activity (intracellular Ca ion level-increasing activity)” value does the source give for “Methylthiocarbamoyl-Sar-D-Tyr-Asn-Trp-Asn-Ser-Phe-Gly-Leu-Arg(Me)-Phe-NH2 [Compound No. 397]” here?
**A.** The value was 5.

**Q.** Which “Specific Activity (intracellular Ca ion level-increasing activity)” value does the source give for “Tyr-Asn-Trp-Asn-Ser-Phe-Gly-Ala-Arg-Phe-NH2 (YNWNSFGARF-NH2) [Compound No. 45]” here?
**A.** The value was 1.

**Q.** “Tyr-Asn-Trp-Phe-Gly-Leu-Arg-Phe-NH2 (YNWFGLRF-NH2) [Compound No. 88]” was tested. Which “Specific Activity (intracellular Ca ion level-increasing activity)” value did it give?
**A.** Its value is 1.
